From article PMC11879040, “Advancing systemic toxicity risk assessment: Evaluation of a NAM-based toolbox approach” (Toxicological Sciences, 2024) come the findings set out here.

Where two headings read alike, the source gives them in different places.

For data set [1], the target named is cAMP-specific 3',5'-cyclic phosphodiesterase 4D, PDE4D (h) (Homo sapiens, UniProt Q08499). The data set can be described thus: IPP PDE4D enzymatic activity. The data set is classed as biochemical. As to conditions: control Ro 20-1724.
Data set [2] deals with Prostaglandin G/H synthase 1, PTGS1(h) (Homo sapiens, UniProt P23219). The data set can be described thus: IPP PTGS1 enzymatic activity. Type of data set: biochemical. As to conditions: control Diclofenac.
Data set [3] concerns Gamma-aminobutyric acid receptor subunit alpha-1 BZD site, GABRA1A (r). Type of data set: binding, rat.
The target of data set [4] is T1, Cholecystokinin receptor type A, CCKAR (h) (Homo sapiens, UniProt P32238).
T1 sequence (P32238 1-428): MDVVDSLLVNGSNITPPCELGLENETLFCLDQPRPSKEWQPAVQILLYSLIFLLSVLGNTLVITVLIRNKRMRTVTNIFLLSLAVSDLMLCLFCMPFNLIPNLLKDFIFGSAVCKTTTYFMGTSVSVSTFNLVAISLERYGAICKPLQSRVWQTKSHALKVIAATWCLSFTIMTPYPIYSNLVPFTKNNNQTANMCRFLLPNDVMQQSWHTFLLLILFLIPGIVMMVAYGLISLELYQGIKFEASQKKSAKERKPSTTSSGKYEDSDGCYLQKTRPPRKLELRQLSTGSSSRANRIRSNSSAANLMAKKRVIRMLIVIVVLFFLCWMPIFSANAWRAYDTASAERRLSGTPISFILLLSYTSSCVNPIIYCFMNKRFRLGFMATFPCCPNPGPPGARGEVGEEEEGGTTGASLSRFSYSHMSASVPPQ
The data set can be described thus: IPP CCKAR binding (agonist radioligand). As to conditions: control CCK-8s.

Data set [5] deals with Cannabinoid receptor 2, CNR2 (h) (Homo sapiens, UniProt P34972). Type of data set: binding. The settings on record: IPP screening at 10 uM; control WIN 55212-2.
In data set [6] the target is 5-hydroxytryptamine receptor 2A, HTR2A (h) (Homo sapiens, UniProt P28223). Type of data set: binding.
Data set [7] has as its target Histamine H1 receptor, HRH1 (h) (Homo sapiens, UniProt P35367). In words: IPP HRH1 binding (antagonist radioligand). As to conditions: control pyrilamine.
For data set [8], the target named is Tyrosine-protein kinase Lck, LCK (h) (Homo sapiens, UniProt P06239). The data set can be described thus: IPP LCK enzymatic activity. Type of data set: biochemical. As to conditions: IPP screening at 10 uM; control staurosporine.
For data set [9], the target named is Vasopressin V1a receptor, AVPR1A (h) (Homo sapiens, UniProt P37288). In words: IPP AVPR1A binding (agonist radioligand). As to conditions: ligand/control [d(CH2)5 1,Tyr(Me)2]-AVP.
In data set [10] the test system is Tubulin (r). In words: IPP Tubulin binding. Also on record: species or system rat.
The target in data set [11] is Carbonic anhydrase II, CA2 (h) (Homo sapiens, UniProt P00918). In words: IPP CA2 enzymatic activity. The data set is classed as biochemical. The settings on record: 10 uM; control acetazolamide.
Data set [12] concerns the target T2, Alpha-1A adrenergic receptor, ADRA1A (h) (Homo sapiens, UniProt P35348).
T2 sequence (P35348 1-466): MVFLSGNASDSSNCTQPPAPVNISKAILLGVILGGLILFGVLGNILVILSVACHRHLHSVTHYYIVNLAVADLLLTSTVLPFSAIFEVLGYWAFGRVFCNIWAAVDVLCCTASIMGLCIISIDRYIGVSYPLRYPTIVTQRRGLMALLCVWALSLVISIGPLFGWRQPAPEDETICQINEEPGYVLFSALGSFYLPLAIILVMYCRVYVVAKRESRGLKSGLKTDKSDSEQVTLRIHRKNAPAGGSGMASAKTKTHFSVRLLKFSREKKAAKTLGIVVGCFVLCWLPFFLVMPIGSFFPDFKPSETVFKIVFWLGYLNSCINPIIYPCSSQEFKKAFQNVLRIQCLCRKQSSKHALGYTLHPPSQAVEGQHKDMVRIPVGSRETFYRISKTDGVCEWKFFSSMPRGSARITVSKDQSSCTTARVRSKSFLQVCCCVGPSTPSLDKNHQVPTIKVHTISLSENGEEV
As to conditions: control WB 4101.

Data set [13] addresses Beta-1 adrenergic receptor, ADRB1 (h) (Homo sapiens, UniProt P08588). As to conditions: control atenolol.
In data set [14] the target is Sodium-dependent dopamine transporter, SLC6A3 (h) (Homo sapiens, UniProt Q01959). The settings on record: control BTCP.
Data set [15] deals with Neuronal acetylcholine receptor subunit alpha-4, CHRNA4 (h) (Homo sapiens, UniProt P17787+P43681). The settings on record: control nicotine.
Data set [16] concerns the target T3, Muscarinic acetylcholine receptor M2, CHRM2 (h) (Homo sapiens, UniProt P08172).
T3 sequence (P08172 1-466): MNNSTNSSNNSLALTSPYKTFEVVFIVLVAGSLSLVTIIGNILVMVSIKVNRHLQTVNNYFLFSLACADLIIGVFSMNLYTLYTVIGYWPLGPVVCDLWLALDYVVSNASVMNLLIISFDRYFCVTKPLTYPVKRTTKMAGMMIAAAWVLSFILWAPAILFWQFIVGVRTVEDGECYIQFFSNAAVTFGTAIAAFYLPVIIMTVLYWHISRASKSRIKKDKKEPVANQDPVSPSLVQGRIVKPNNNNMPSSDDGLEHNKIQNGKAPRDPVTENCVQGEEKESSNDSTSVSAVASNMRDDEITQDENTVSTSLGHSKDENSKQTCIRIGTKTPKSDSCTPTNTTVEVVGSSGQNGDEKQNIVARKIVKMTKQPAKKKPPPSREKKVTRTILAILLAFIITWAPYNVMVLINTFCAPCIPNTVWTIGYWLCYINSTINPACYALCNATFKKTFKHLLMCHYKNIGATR
The settings on record: control methoctramine.

Data set [17] deals with Delta-type opioid receptor, OPRD1 (h) (Homo sapiens, UniProt P41143). The settings on record: ligand/control DPDPE.
For data set [18], the target named is Potassium voltage-gated channel subfamily H member 2 hERG, KCNH2 (h) (Homo sapiens, UniProt Q12809).
Where [19] appears, read: IPP screening at 10 uM, control diazepam.
Where [20] appears, read: IPP screening at 10 uM, control (±)DOI.
[21] abbreviates: 10 uM, ligand/control Colchicine.

Chain of Vasopressin V1a receptor, AVPR1A (h) (P37288 whole entry): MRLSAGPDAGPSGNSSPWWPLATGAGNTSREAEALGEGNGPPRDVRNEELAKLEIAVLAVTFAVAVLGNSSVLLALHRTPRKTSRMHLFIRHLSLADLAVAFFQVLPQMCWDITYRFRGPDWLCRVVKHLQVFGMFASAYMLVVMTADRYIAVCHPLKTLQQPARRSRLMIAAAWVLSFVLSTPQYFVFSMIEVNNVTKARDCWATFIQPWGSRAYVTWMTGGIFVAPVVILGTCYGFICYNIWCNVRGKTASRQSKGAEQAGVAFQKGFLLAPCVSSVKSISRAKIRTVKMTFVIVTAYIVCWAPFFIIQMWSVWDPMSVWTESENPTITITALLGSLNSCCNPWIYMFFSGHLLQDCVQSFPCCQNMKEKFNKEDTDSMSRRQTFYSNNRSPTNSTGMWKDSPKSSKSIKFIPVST
Chain of Neuronal acetylcholine receptor subunit alpha-4, CHRNA4 (h) (P43681 29-627 limits assumed): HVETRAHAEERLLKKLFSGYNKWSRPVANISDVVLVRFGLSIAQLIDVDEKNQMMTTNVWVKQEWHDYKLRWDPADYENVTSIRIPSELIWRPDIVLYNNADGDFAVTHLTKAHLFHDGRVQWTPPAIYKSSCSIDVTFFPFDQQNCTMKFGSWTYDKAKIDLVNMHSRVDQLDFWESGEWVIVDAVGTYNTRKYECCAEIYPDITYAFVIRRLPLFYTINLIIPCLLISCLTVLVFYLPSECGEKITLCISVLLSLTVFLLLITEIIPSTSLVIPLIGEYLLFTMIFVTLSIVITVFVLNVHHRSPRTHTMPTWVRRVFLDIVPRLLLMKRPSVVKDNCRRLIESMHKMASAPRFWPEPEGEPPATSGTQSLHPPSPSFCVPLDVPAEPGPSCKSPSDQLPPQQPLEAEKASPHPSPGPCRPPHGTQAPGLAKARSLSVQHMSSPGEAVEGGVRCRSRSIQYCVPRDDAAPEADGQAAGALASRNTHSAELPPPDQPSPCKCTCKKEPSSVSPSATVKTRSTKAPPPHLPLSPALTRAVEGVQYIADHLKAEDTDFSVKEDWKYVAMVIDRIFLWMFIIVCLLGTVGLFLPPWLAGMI
Chain of Neuronal acetylcholine receptor subunit alpha-4, CHRNA4 (h) (P17787 26-502): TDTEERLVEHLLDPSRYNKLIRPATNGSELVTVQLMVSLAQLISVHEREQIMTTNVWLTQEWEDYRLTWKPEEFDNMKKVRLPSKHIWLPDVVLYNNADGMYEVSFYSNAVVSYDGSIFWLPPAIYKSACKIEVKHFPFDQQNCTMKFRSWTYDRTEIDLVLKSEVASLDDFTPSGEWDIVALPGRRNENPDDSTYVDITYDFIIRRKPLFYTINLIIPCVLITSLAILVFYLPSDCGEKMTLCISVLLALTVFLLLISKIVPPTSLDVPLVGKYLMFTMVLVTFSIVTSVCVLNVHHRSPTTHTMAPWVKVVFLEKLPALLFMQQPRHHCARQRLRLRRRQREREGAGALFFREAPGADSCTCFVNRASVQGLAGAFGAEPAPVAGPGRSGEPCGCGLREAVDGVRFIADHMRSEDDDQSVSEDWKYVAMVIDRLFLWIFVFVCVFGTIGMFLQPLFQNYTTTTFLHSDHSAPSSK
Chain of Prostaglandin G/H synthase 1, PTGS1(h) (P23219 24-599): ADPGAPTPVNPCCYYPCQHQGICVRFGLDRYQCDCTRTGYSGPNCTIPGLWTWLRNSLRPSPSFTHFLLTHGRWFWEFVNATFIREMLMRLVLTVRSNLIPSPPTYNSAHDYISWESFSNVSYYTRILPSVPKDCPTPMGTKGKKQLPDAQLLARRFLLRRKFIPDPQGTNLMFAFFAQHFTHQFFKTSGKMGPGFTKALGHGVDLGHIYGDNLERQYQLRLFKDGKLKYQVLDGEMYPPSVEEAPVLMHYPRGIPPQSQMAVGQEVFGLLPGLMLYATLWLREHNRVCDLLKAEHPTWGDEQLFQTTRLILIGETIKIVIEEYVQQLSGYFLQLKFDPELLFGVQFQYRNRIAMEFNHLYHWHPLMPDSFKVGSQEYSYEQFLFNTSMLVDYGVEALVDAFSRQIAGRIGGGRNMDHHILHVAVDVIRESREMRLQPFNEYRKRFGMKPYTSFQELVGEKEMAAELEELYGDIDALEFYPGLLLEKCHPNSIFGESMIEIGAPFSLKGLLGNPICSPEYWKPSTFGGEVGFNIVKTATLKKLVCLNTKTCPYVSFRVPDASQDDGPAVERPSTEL
Chain of Delta-type opioid receptor, OPRD1 (h) (P41143 whole entry): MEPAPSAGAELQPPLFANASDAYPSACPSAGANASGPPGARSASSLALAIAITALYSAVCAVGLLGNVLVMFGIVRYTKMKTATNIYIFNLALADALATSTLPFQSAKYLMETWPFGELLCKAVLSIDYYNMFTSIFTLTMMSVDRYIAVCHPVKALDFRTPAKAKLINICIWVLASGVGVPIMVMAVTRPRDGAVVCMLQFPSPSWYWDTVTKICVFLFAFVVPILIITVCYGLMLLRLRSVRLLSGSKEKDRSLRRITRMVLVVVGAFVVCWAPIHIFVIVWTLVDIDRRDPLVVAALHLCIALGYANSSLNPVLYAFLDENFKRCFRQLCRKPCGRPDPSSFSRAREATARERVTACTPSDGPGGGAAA
Chain of Cannabinoid receptor 2, CNR2 (h) (P34972 whole entry): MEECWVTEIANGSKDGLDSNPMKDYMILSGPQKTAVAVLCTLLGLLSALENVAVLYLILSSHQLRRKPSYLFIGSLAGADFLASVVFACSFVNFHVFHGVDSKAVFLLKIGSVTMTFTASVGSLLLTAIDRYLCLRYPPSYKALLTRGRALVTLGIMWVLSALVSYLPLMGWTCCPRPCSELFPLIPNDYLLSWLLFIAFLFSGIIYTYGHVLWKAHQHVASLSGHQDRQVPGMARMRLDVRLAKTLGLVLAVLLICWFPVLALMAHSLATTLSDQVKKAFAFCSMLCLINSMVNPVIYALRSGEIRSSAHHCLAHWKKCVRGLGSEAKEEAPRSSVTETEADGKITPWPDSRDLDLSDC
Chain of 5-hydroxytryptamine receptor 2A, HTR2A (h) (P28223 whole entry): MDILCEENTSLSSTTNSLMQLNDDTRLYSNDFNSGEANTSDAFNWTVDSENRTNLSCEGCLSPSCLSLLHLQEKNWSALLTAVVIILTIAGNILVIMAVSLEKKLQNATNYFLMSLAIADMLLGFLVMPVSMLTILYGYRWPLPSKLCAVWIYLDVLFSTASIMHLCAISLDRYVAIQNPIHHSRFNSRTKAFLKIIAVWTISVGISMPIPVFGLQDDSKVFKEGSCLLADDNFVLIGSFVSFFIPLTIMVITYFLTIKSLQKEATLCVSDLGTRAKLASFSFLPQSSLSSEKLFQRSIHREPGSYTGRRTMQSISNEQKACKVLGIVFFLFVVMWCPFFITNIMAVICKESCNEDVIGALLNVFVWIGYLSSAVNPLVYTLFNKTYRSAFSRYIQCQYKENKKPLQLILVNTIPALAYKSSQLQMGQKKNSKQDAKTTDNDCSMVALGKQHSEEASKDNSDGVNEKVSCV
Chain of Sodium-dependent dopamine transporter, SLC6A3 (h) (Q01959 whole entry): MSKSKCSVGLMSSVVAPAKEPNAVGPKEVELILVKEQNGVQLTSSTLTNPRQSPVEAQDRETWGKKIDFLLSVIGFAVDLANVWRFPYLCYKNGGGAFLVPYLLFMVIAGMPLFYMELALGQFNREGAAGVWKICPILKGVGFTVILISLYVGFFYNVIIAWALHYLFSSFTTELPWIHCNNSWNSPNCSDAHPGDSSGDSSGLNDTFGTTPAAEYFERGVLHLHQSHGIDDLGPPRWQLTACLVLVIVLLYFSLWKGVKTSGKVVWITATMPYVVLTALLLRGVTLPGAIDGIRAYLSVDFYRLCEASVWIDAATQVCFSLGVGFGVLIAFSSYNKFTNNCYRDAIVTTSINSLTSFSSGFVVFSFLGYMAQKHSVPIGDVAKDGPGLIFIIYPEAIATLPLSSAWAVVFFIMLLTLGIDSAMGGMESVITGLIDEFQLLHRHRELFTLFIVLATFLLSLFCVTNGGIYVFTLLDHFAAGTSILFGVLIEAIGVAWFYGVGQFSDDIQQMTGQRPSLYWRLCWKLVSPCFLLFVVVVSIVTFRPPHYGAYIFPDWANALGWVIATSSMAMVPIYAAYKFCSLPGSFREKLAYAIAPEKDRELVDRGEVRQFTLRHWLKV
Chain of Tyrosine-protein kinase Lck, LCK (h) (P06239 whole entry): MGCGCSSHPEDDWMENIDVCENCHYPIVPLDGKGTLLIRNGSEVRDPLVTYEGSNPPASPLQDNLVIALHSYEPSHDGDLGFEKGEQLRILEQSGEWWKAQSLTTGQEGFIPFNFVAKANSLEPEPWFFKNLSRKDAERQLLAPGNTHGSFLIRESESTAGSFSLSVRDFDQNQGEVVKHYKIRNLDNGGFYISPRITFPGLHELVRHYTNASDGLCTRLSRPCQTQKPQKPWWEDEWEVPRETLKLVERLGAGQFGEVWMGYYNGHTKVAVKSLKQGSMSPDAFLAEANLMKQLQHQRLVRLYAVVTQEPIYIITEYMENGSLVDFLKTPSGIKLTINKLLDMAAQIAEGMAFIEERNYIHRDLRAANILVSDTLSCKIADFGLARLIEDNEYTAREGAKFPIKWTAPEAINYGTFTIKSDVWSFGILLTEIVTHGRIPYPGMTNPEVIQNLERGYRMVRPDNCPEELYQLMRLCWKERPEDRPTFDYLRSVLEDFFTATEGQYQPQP
Chain of Beta-1 adrenergic receptor, ADRB1 (h) (P08588 whole entry): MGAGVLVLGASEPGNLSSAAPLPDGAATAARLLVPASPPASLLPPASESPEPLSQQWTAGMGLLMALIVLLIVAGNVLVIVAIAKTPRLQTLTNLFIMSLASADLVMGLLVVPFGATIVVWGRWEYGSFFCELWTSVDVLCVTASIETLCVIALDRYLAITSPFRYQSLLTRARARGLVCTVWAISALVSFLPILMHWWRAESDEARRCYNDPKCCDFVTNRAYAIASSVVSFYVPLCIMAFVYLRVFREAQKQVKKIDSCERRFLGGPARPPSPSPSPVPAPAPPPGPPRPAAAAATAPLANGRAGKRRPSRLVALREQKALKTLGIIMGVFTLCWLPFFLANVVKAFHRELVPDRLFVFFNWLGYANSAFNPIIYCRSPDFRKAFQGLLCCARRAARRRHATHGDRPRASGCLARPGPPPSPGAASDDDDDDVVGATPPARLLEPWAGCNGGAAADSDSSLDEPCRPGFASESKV

In the case of `CCOP(=S)(OCC)Oc1nc(Cl)c(Cl)cc1Cl` [Chlorpyrifos, O,O-Diethyl O-(3,5,6-trichloropyridin-2-yl) phosphorothioate], the Enzymatic activity is 51.8% in data set [1] (IPP screening at 10 uM), 2.7% in data set [2] (IPP screening at 10 uM) and -7.4% in data set [8]. Further, the Specific binding in [3] (setting [19]) is listed as -11.0%; in data set [4] (IPP screening at 10 uM), 55.2%; in [5] it was 16.0%; in [6] (setting [20]), 52.0%; in [7] (IPP screening at 10 uM), 17.6%; in [12] (IPP screening at 10 uM), 5.4%. In addition, the Specific binding in [13] (IPP screening at 10 uM) is 5.3%; in data set [14] (IPP screening at 10 uM), 34.7%; in data set [15] (IPP screening at 10 uM), -6.9%; in data set [16] (IPP screening at 10 uM), -21.3%. Besides, the “IPP screening %, Specific binding” value was -6.8% in data set [9] (10 uM), -20.0% in data set [10] (setting [21]) and 2.5% in data set [17] (10 uM). Also, the “IPP screening %, Enzymatic activity” value in data set [11] was 5.1%.

Take `CC(C)(C)c1ccc(CCOc2ncnc3ccccc23)cc1` [Fenazaquin, 4-[2-(4-tert-Butylphenyl)ethoxy]quinazoline]: the Enzymatic activity in data set [1] (IPP screening at 10 uM) is 14.7%; in [2] (IPP screening at 10 uM), -4.7%; in data set [8], 3.3%. The Specific binding in data set [3] (setting [19]) was determined as 7.6%; in [4] (IPP screening at 10 uM) it was 60.9%; in data set [5], 26.8%; in data set [6] (setting [20]) it was 20.7%; in [7] (IPP screening at 10 uM), 37.0%; in data set [12] (IPP screening at 10 uM), 35.8%. The Specific binding is on record as 16.5% in data set [13] (IPP screening at 10 uM), 65.2% in data set [14] (IPP screening at 10 uM), -6.4% in [15] (IPP screening at 10 uM) and 14.3% in [16] (IPP screening at 10 uM). The “IPP screening %, Specific binding” value in data set [9] (10 uM) is on record as -5.5%; in data set [10] (setting [21]), -2.0%; in data set [17] (10 uM) it was 46.9%; in data set [18] (10 uM, [3H] Dofetilide, control Terfenadine), 34.9%. The “IPP screening %, Enzymatic activity” value in data set [11] is given as -0.2%.

Take `CC1(C)O[C@@H]2[C@@H](CO[C@@]3(COS(N)(=O)=O)OC(C)(C)O[C@@H]23)O1` [Topiramate, [(3aS,5aR,8aR,8bS)-2,2,7,7-Tetramethyltetrahydro-2H,3aH,7H-bis[1,3]dioxolo[4,5-b:4',5'-d]pyran-3a-yl]methyl sulfamate (non-preferred name)]: the figures for the Enzymatic activity in data set [1] (IPP screening at 100 uM) and in data set [2] (IPP screening at 100 uM) were 27.9% and -1.5%, respectively. The Specific binding in data set [3] (IPP screening at 100 uM, control diazepam) is listed as 9.7%; in data set [4] (IPP screening at 100 uM), 9.6%; in data set [6] (IPP screening at 100 uM; control ±)DOI), 0.9%; in data set [7] (IPP screening at 100 uM), 5.8%; in data set [12] (IPP screening at 100 uM), 2.2%; in data set [13] (IPP screening at 100 uM), -2.9%. Moreover, the figures for the Specific binding in [14] (IPP screening at 100 uM), in data set [15] (IPP screening at 100 uM) and in data set [16] (IPP screening at 100 uM) were 0.1%, 3.3% and 0.7%, respectively. Besides, the “IPP screening %, Specific binding” value is given as 7.2% in data set [9] (100 uM); 5% in data set [10] (100 uM, ligand/control Colchicine); 2.3% in data set [17] (100 uM); -13.1% in data set [18] (human).

In the case of “(4S,4aR,5S,5aR,6S,12aS)-4-(Dimethylamino)-3,5,6,10,12,12a-hexahydroxy-6-methyl-1,11-dioxo-1,4,4a,5,5a,6,11,12a-octahydrotetracene-2-carboxamide--hydrogen chloride (1/1) [Oxytetracycline hydrochloride]”, the Enzymatic activity in data set [1] (IPP screening at 10 uM) is recorded as 9.6%; in data set [2] (IPP screening at 10 uM) it was -5.1%; in [8] it was -1.2%. Further, the Specific binding in data set [3] (setting [19]) is given as -0.4%; in data set [4] (IPP screening at 10 uM) it was 7.8%; in data set [5] it was 4.9%; in data set [12] (IPP screening at 10 uM), 6.2%; in data set [13] (IPP screening at 10 uM), 7.5%; in data set [14] (IPP screening at 10 uM), -0.9%. Further, the Specific binding in [15] (IPP screening at 10 uM) was -2.5%. In addition, the “IPP screening %, Specific binding” value in [9] (10 uM) is reported as 1.6%; in data set [10] (setting [21]) it was -3.0%; in data set [17] (10 uM) it was -5.6%; in [18], -10.2%. In data set [11], the “IPP screening %, Enzymatic activity” value stood at 0.7%.

As for “mixture of 2- and 3-tert-butyl-4-methoxyphenol [Butylated Hydroxyanisole]”, the Enzymatic activity turned out to be 12.2% in data set [1] (IPP screening at 10 uM), 46.1% in data set [2] (IPP screening at 10 uM) and 14.6% in [8]. In addition, the Specific binding in data set [3] is listed as -10.9%; in data set [4] (IPP screening at 10 uM), 4.2%; in data set [5], -1.2%; in [6] (setting [20]), 74.3%; in data set [7] (IPP screening at 10 uM), -2.1%; in data set [12] (IPP screening at 10 uM), 20.2%. Moreover, the Specific binding in [13] (IPP screening at 10 uM) is 6.3%; in [14] (IPP screening at 10 uM) it was 20.6%; in [15] (IPP screening at 10 uM), -5.0%; in [16] (IPP screening at 10 uM), 8.9%. In addition, the “IPP screening %, Specific binding” value in data set [9] (10 uM) was 15.2%; in [10], -5.0%; in data set [17] (10 uM) it was -2.3%. The “IPP screening %, Enzymatic activity” value in data set [11] is -0.4%.
